T1: AHD (anillin-homology domain of anillin, 712-981) (Homo sapiens, UniProt Q9NQW6)
T1 sequence (Q9NQW6 712-981): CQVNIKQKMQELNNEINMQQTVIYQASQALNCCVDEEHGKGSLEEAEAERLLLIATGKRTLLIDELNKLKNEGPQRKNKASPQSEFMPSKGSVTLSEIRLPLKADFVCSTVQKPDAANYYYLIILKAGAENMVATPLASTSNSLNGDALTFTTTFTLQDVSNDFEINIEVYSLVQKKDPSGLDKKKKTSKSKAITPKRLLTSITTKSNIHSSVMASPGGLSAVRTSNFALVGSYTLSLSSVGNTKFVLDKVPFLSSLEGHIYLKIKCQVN

T2: Mid1 (C-terminal domain, 579-920) (Schizosaccharomyces pombe, UniProt P78953)
T2 sequence (P78953 579-920): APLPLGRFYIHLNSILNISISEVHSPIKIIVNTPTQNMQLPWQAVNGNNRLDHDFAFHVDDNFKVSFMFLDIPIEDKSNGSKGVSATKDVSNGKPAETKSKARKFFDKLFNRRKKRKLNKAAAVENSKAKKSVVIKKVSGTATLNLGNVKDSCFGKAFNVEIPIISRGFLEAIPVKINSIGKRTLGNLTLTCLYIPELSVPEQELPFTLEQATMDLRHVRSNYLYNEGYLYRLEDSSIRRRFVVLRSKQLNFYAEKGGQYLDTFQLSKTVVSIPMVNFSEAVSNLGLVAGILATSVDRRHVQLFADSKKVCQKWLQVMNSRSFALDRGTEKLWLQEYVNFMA

B1: anillin-homology domain (AHD) of human anillin (712–981) (domain or fragment, UniProt Q9NQW6 712-981, looked up)
chain: T1 sequence (Q9NQW6 712-981)

Legend:
[1] = biological target: AHD-PH + RhoA* (Homo sapiens, UniProt Q9NQW6); experiment: SPR, L1 chip, liposomes; assay type: binding; details: PI(4,5)P2 vesicles; with lipid-modified RhoA; room temperature
Chain of AHD-PH + RhoA* (Q9NQW6 712-1124): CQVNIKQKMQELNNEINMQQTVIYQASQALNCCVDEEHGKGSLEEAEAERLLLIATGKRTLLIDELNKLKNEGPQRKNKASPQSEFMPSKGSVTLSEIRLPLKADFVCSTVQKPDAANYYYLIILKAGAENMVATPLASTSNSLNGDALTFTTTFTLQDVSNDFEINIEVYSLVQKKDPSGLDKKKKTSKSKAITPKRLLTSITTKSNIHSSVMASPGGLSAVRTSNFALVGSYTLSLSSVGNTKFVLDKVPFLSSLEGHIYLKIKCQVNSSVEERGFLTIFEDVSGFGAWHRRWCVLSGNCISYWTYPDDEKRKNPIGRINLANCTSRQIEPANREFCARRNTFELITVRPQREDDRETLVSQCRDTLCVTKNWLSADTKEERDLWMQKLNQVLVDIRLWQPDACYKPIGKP
Chain of AHD-PH + RhoA* (P61586 1-190 partner): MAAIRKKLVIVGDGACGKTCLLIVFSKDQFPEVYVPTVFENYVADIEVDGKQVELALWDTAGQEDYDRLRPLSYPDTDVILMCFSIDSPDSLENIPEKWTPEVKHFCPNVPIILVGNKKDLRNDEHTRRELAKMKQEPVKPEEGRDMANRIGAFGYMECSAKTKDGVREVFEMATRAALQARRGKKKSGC

[2] = biological target: T1, AHD (anillin-homology domain of anillin, 712-981); experiment: SPR, L1 chip, liposomes; assay type: binding; details: PI(4,5)P2 vesicles; room temperature
[3] = biological target: T2, Mid1 (C-terminal domain, 579-920); experiment: SPR, L1 chip, liposomes; assay type: binding; details: PI(4,5)P2 vesicles; dimeric Mid1; given as 'up to'; room temperature
[4] = biological target: RhoA(181)-Q63L (UniProt P61586 1-181, Q63L); experiment: ITC
Chain of RhoA(181)-Q63L (P61586 1-181 Q63L): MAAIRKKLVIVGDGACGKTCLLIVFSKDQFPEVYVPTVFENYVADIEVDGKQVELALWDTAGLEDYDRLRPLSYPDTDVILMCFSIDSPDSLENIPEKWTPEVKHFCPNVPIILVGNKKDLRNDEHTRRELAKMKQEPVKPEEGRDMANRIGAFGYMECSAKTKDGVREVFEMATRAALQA

| Molecule | Kd [1] [nM] | Kd [2] [nM] | Kd [3] [nM] | dH [4] [kcal/mol] |
| --- | --- | --- | --- | --- |
| PI(4,5)P2 | ~280 | ~14000 | 120 |  |
| B1 |  |  |  | 3.97 |
